Reference: US20190151312A1, “HEPARAN SULFATE BIOSYNTHESIS INHIBITORS FOR THE TREATMENT OF DISEASES” (BioMarin Pharmaceutical Inc., priority 2014, published 2019)
Where two headings read alike, the source gives them in different places.

System: GM01896 cells (MPS II dermal fibroblasts)
Assay: Assay 1: MPS cellular assay, MPS II (heparan sulfate disaccharide biomarkers by LC-MS)
Assay type: cell-based, human
Settings: Assay 1 for MPS II, heparan sulfate disaccharide biomarkers (I2a4, I2a6, I2S0 and/or I2S6), read-out: IC50 Range
Protocol: Dermal fibroblasts from humans with an MPS disorder and from healthy donors are grown. Cells are expanded and kept in culture for analysis. Human foreskin fibroblasts can be obtained from the American Type Culture Collection (CRL-1634). Human dermal fibroblasts derived from biopsies of individuals are purchased from Coriell Institute: clinically healthy individuals, GM00408, GM00409, GM00200 (clinically unaffected sibling of an individual with metachromatic leukodystrophy), GM05659, GM08398, and GM15871 (clinically unaffected sibling of an individual with unclassified Ehlers-Danlos syndrome); heterozygous MPS I carriers, GM01392, GM01393 and GM0003; homozygous individuals affected with MPS I, GM06214, GM11495, GM00034, GM01391 and GM01256; individuals with MPS II, GM01896, GM03181, GM00615 and GM00298; individuals with MPS IIIA, GM00879, GM00643, GM00934, GM06110 and GM00629; MPS IIIB, GM01426; MPS IIIC, GM05157; MPS IIID, GM05093; and MPS VII, GM00121. All cells are grown in DMEM containing 50 U ml-1 penicillin, […] ml-1 streptomycin, 2 mM glutamine and 10% FBS. Cells are seeded on 15-cm-diameter tissue culture dishes, grown to confluence and maintained in culture for analysis. Sulfamidase activity in cell extracts is measured with 4-methylumbelliferyl-α-D-N-sulfoglucosaminide according the vendors instructions substituting Tris-acetate buffer (pH 6.5; Moscerdam).
Cells are treated with a compound of the invention at a concentration at or below 30 μM for 4 to 21 days. Cell monolayers are washed with phosphate buffered saline and detached by treatment with GIBCO trypsin-EDTA solution (Invitrogen). After centrifugation, the supernatant is removed and the cells are lysed in 0.5 mL of 0.1 N sodium hydroxide. The amount of protein is determined by bicinchoninic acid (BCA assay, Thermo Scientific). GAGs are isolated by anion exchange chromatography and digested with glycosaminoglycan lyases (heparinases I, II, and III, IBEX).
Enzymatically depolymerized GAG preparations are differentially mass labeled by reductive amination with [^12C6]aniline. Briefly, heparan sulfate disaccharides (1-10 pmol) are dried down in a centrifugal evaporator and reacted with [^12C6]aniline or [^13C6]aniline (15 μL, 165 μmol) and 15 μL of 1 M NaCNBH3 (Sigma-Aldrich) freshly prepared in dimethylsulfoxide/acetic acid (7:3, v/v) is added to each sample. Reactions are carried out at 37° C. for 16 h and then dried in a centrifugal evaporator. Unsubstituted amines are reacted with propionic anhydride (Sigma-Aldrich). Dried samples are reconstituted in 20 μL of 50% methanol, and 3 μL of propionic anhydride (Sigma-Aldrich, 23.3 μmol) is added. Reactions are carried out at ˜23° C. for 2 h. Acylated disaccharides are subsequently aniline tagged as described above. Each sample is mixed with commercially available standard unsaturated disaccharides (Seikagaku), standard N-sulfoglucosamine, glucosamine-6-sulfate, N-acetylgalactosamine-4-sulfate and N-acetylgalactosamine-6-sulfate (Sigma-Aldrich), and/or synthesized α-L-idopyranosyluronate-(1,4)-2-N-acetyl-2-deoxy-α/β-D-glucopyranoside (I0S0). All standards are tagged with [^13C6]aniline (Sigma-Aldrich). Samples are then analyzed by LC-MS using an LTQ Orbitrap Discovery electrospray ionization mass spectrometer (Thermo Scientific) equipped with quaternary HPLC pump (Finnigan Surveyor MS pump) and a reverse-phase capillary column as described in J. Biol. Chem. 2008, 283(48), 33674.
MPS II: Assay 1, as described above, was used to determine activity for MPS II using GM01896 cells. […] Extracted ion chromatograms were obtained. Cell viability was monitored using alamar blue or ATP quantification. IC50's were calculated using curve fitting within the ChemInnovation CBIS database system.

Structure (SMILES)	IC50 (Homo sapiens, Fibroblast) [nM]	IC50 [nM]
CNS(=O)(=O)c1ccc(Nc2cc(-c3ccc4cnn(C)c4c3)nc(N3CCOCC3)n2)cc1 [methyl[(4-{[6-(1-methyl(1H-indazol-6-yl))-2-morpholin-4-ylpyrimidin-4-yl]amino}phenyl)sulfonyl]amine]	1000 to 5000	–
Cc1nn(C)c2cc(-c3cc(Nc4ccc(-c5ccn[nH]5)cc4)nc(N4CCOCC4)n3)ccc12 [[6-(1,3-dimethyl(1H-indazol-6-yl))-2-morpholin-4-ylpyrimidin-4-yl](4-pyrazol-5-ylphenyl)amine]	< 500	–
Cc1nc2ccc(-c3cc(Nc4ccc(Cl)cc4)nc(N4CCOCC4)n3)cc2n1CCCN(C)C [[3-(6-{6-[(4-chlorophenyl)amino]-2-morpholin-4-ylpyrimidin-4-yl}-2-methylbenzimidazolyl)propyl]dimethylamine]	–	500 to 1000
Cn1nc(CCN2CCOCC2)c2ccc(-c3cc(Nc4ccc(-c5nnc(C6CC6)[nH]5)cc4)nc(N4CCOCC4)n3)cc21 [[4-(5-cyclopropyl(4H-1,2,4-triazol-3-yl))phenyl]{6-[1-methyl-3-(2-morpholin-4-ylethyl)(1H-indazol-6-yl)]-2-morpholin-4-ylpyrimidin-4-yl}amine]	< 500	–
Cc1nn(C)c2nc(-c3cc(Nc4ccc(Cl)cc4)nc(N4CCOCC4)n3)ccc12 [[6-(1,3-dimethylpyrazolo[4,5-e]pyridin-6-yl)-2-morpholin-4-ylpyrimidin-4-yl](4-chlorophenyl)amine]	1000 to 5000	–
CNC(=O)c1ccc(Nc2cc(-c3ccc4ncn(CC5CC5)c4c3)nc(N3CCOCC3)n2)cn1 [[5-({6-[1-(cyclopropylmethyl)benzimidazol-6-yl]-2-morpholin-4-ylpyrimidin-4-yl}amino)(2-pyridyl)]-N-methylcarboxamide]	< 500	–
Cc1nn(C)c2cc(-c3cc(Nc4ccc(-c5c[nH]cn5)cc4)nc(N4CCOCC4)n3)ccc12 [[6-(1,3-dimethyl(1H-indazol-6-yl))-2-morpholin-4-ylpyrimidin-4-yl](4-imidazol-4-ylphenyl)amine]	1000 to 5000	–
Cn1c(=O)[nH]c2ccc(-c3cc(Nc4ccc(Cl)cc4)nc(N4CCOCC4)n3)cc21 [6-{6-[(4-chlorophenyl)amino]-2-morpholin-4-ylpyrimidin-4-yl}-1-methyl-3-hydrobenzimidazol-2-one]	–	< 500
Cn1ccc2ccc(Nc3cc(-c4ccc5cnn(C)c5c4)nc(N4CCOCC4)n3)cc21 [[6-(1-methyl(1H-indazol-6-yl))-2-morpholin-4-ylpyrimidin-4-yl](1-methylindol-6-yl)amine]	< 500	–
CNC(=O)c1ccc(Nc2cc(-c3ccc4c(c3)ncn4CCN(C)C)nc(N3CCOCC3)n2)cc1 [{4-[(6-{1-[2-(dimethylamino)ethyl]benzimidazol-5-yl}-2-morpholin-4-ylpyrimidin-4-yl)amino]phenyl}-N-methylcarboxamide]	1000 to 5000	–
CN(C)c1ccc(Nc2cc(-c3ccc4ncn(C)c4c3)nc(N3CCOCC3)n2)cc1 [dimethyl(4-{[6-(1-methylbenzimidazol-6-yl)-2-morpholin-4-ylpyrimidin-4-yl]amino}phenyl)amine]	1000 to 5000	–
Cn1nc(CCN2CCOCC2)c2ccc(-c3cc(Nc4ccc(-n5cccn5)cc4)nc(N4CCOCC4)n3)cc21 [{6-[1-methyl-3-(2-morpholin-4-ylethyl)(1H-indazol-6-yl)]-2-morpholin-4-ylpyrimidin-4-yl}(4-pyrazolylphenyl)amine]	–	< 500
Cc1nn(C)c2cc(-c3cc(Nc4ccc5ccn(C)c5c4)nc(N4CCOCC4)n3)ccc12 [[6-(1,3-dimethyl(1H-indazol-6-yl))-2-morpholin-4-ylpyrimidin-4-yl](1-methylindol-6-yl)amine]	< 500	–
Cn1c(CN2CCOCC2)nc2ccc(-c3cc(Nc4ccc(Cl)cc4)nc(N4CCOCC4)n3)cc21 [(4-chlorophenyl){6-[1-methyl-2-(morpholin-4-ylmethyl)benzimidazol-6-yl]-2-morpholin-4-ylpyrimidin-4-yl}amine]	500 to 1000	–
COC(=O)c1ccc(Nc2cc(-c3ccc4cnn(CCCN5CCOCC5)c4c3)nc(N3CCOCC3)n2)cc1 [methyl 4-({2-morpholin-4-yl-6-[1-(3-morpholin-4-ylpropyl)(1H-indazol-6-yl)]pyrimidin-4-yl}amino)benzoate]	500 to 1000	–
Cc1cnn(-c2ccc(Nc3cc(-c4ccc5cnn(C)c5c4)nc(N4CCOCC4)n3)cc2)n1 [[4-(4-methyl(1,2,3-triazol-2-yl))phenyl][6-(1-methyl(1H-indazol-6-yl))-2-morpholin-4-ylpyrimidin-4-yl]amine]	< 500	–
Cn1nc(NCCN2CCOCC2)c2ccc(-c3cc(Nc4ccc(Cl)cc4)nc(N4CCOCC4)n3)cc21 [(4-chlorophenyl)(6-{1-methyl-3-[(2-morpholin-4-ylethyl)amino](1H-indazol-6-yl)}-2-morpholin-4-ylpyrimidin-4-yl)amine]	500 to 1000	–
CN1CCN(Cc2nn(C)c3cc(-c4cc(Nc5ccc(Cl)cc5)nc(N5CCOCC5)n4)ccc23)CC1 [(4-chlorophenyl)(6-{1-methyl-3-[(4-methylpiperazinyl)methyl](1H-indazol-6-yl)}-2-morpholin-4-ylpyrimidin-4-yl)amine]	500 to 1000	–
Cn1ncc2ccc(-c3cc(Nc4ccc(-c5ncc[nH]5)cc4)nc(N4CCOCC4)n3)cc21 [(4-imidazol-2-ylphenyl)[6-(1-methyl(1H-indazol-6-yl))-2-morpholin-4-ylpyrimidin-4-yl]amine]	< 500	–
Cc1cnn(-c2ccc(Nc3cc(-c4ccc5c(CCN6CCOCC6)nn(C)c5c4)nc(N4CCOCC4)n3)cc2)n1 [[4-(4-methyl(1,2,3-triazol-2-yl))phenyl]{6-[1-methyl-3-(2-morpholin-4-ylethyl)(1H-indazol-6-yl)]-2-morpholin-4-ylpyrimidin-4-yl}amine]	< 500	–
Cn1ccc2ccc(Nc3cc(-c4ccc5c(CCN)nn(C)c5c4)nc(N4CCOCC4)n3)cc21 [{6-[3-(2-aminoethyl)-1-methyl(1H-indazol-6-yl)]-2-morpholin-4-ylpyrimidin-4-yl}(1-methylindol-6-yl)amine]	< 500	–
Clc1ccc(Nc2cc(-c3ccc4cn[nH]c4c3)nc(N3CCOCC3)n2)cc1 [N-(4-chlorophenyl)-6-(1H-indazol-6-yl)-2-morpholinopyrimidin-4-amine]	1000 to 5000	–
Cc1nnc(-c2ccc(Nc3cc(-c4cnc5cnn(C)c5c4)nc(N4CCOCC4)n3)cc2)[nH]1 [[4-(5-methyl(4H-1,2,4-triazol-3-yl))phenyl][6-(1-methylpyrazolo[4,5-b]pyridin-6-yl)-2-morpholin-4-ylpyrimidin-4-yl]amine]	< 500	–
Cc1nn(CCCN2CCOCC2)c2cc(-c3cc(Nc4ccc(Cl)cc4)nc(N4CCOCC4)n3)ccc12 [(4-chlorophenyl){6-[3-methyl-1-(3-morpholin-4-ylpropyl)(1H-indazol-6-yl)]-2-morpholin-4-ylpyrimidin-4-yl}amine]	1000 to 5000	–
Clc1ccc(Nc2cc(-c3ccc4c(c3)ncn4CC3CC3)nc(N3CCOCC3)n2)cc1 [(4-chlorophenyl){6-[1-(cyclopropylmethyl)benzimidazol-5-yl]-2-morpholin-4-ylpyrimidin-4-yl}amine]	500 to 1000	–
Clc1ccc(Nc2cc(-c3ccc4ncn(CCCN5CCOCC5)c4c3)nc(N3CCOCC3)n2)cc1 [(4-chlorophenyl){2-morpholin-4-yl-6-[1-(3-morpholin-4-ylpropyl)benzimidazol-6-yl]pyrimidin-4-yl}amine]	500 to 1000	–
